{
  "source": "paper PMC12190468",
  "about": "“Designing New Chimeric Proline-Rich Antimicrobial Peptides to Enhance Efficacy Toward the ESKAPE+E: Beyond Sequence Extension” (Biomolecules, 2025)",
  "key": {"E. coli ATCC 25922 [1]": {"test_system": "E. coli ATCC 25922", "assay_type": "cell-based, Escherichia coli", "settings": "ATCC 25922, 18 h", "protocol": "(§1) Reference bacterial strains, including Escherichia coli BW25113, Escherichia coli ATCC 25922, Klebsiella pneumoniae ATCC 700603, Acinetobacter baumannii ATCC 19606, Enterobacter cloacae ATCC 13047, Pseudomonas aeruginosa ATCC 27853, Staphylococcus aureus ATCC 25923, and Enterococcus faecium ATCC 19434, were obtained from the American Type Culture Collection (ATCC) in Manassas, VA, USA. Strains were stored at −80 °C in glycerol stocks until use. For all experiments, cultures were grown in sterile MHB (Difco Inc., Becton Dickinson, Sparks, MD, USA). Overnight cultures were incubated at 37 °C for approximately 18 h under shacking (140 rpm, then diluted 1:30 in fresh MHB and again shaken at 140 rpm for ~2 h to reach the mid-log phase (OD ~0.3 at 600 nm). The bacterial cultures were then diluted to the desired concentration for experiments. E. coli BW25113 ΔsbmA (Keio collection) was grown in MHB with the addition of 50 μg/mL kanamycin (Sigma, Milan, Italy).\n(§2) Antimicrobial activity was assessed using the Minimum Inhibitory Concentration (MIC) assay, following CLSI guidelines. Briefly, peptides were serially diluted in MHB across a 96-well round-bottom plate (Sarstedt, Milan, Italy), starting with 50 μL in the first well. A mid-log bacterial culture was diluted to 5 × 10^5 CFU/mL, and 50 μL of this suspension was added to each well (except the MHB sterility control wells). […] MIC values were confirmed by at least three independent experiments (n ≥ 3)."}, "E. coli BW 25113 ΔsbmA [2]": {"test_system": "E. coli BW 25113 ΔsbmA", "assay_type": "cell-based, Escherichia coli", "settings": "full MHB, 18 h at 37 °C, mode of at least three independent experiments", "protocol": "as §1, §2"}, "E. coli BW 25113 [3]": {"test_system": "E. coli BW 25113", "assay_type": "cell-based, Escherichia coli", "settings": "full MHB, 18 h at 37 °C, mode of at least three independent experiments", "protocol": "as §1, §2"}, "E. faecium ATCC 19434 [4]": {"test_system": "E. faecium ATCC 19434", "assay_type": "cell-based, Enterococcus faecium", "settings": "ATCC 19434, 18 h", "protocol": "as §1, §2"}, "S. aureus ATCC 25923 [5]": {"test_system": "S. aureus ATCC 25923", "assay_type": "cell-based, Staphylococcus aureus", "settings": "ATCC 25923, 18 h", "protocol": "as §1, §2"}, "A. baumannii ATCC 19606 [6]": {"test_system": "A. baumannii ATCC 19606", "assay_type": "cell-based, Acinetobacter baumannii", "settings": "ATCC 19606, 18 h", "protocol": "as §1, §2"}, "P. aeruginosa ATCC 27853 [7]": {"test_system": "P. aeruginosa ATCC 27853", "assay_type": "cell-based, Pseudomonas aeruginosa", "settings": "ATCC 27853, 18 h", "protocol": "as §1, §2"}, "E. coli ATCC 25922 [8]": {"test_system": "E. coli ATCC 25922", "assay_type": "cell-based, Escherichia coli", "settings": "ATCC 25922, 18 h", "protocol": "as §1\n(§3) The Minimal Bactericidal Concentration (MBC) was determined by plating 25 μL from clear MIC wells onto MH-agar Petri dishes (Difco Inc., Becton Dickinson, Sparks, MD, USA), followed by overnight incubation at 37 °C. The MBC was the lowest compound concentration, reducing bacterial viability by ≥99.9%. Results were based on at least three independent experiments (n ≥ 3).", "remark": "listed apart in the source"}, "E. coli BW 25113 ΔsbmA [9]": {"test_system": "E. coli BW 25113 ΔsbmA", "assay_type": "cell-based, Escherichia coli", "settings": "≥99.9% reduction of viability, after 18 h at 37 °C, mode of at least three independent experiments", "protocol": "as §1, §3"}, "E. coli BW 25113 [10]": {"test_system": "E. coli BW 25113", "assay_type": "cell-based, Escherichia coli", "settings": "≥99.9% reduction of viability, after 18 h at 37 °C, mode of at least three independent experiments", "protocol": "as §1, §3"}, "E. faecium ATCC 19434 [11]": {"test_system": "E. faecium ATCC 19434", "assay_type": "cell-based, Enterococcus faecium", "settings": "ATCC 19434, 18 h", "protocol": "as §1, §3", "remark": "listed apart in the source"}, "S. aureus ATCC 25923 [12]": {"test_system": "S. aureus ATCC 25923", "assay_type": "cell-based, Staphylococcus aureus", "settings": "ATCC 25923, 18 h", "protocol": "as §1, §3", "remark": "listed apart in the source"}, "[13]": {"test_system": "K. pneumoniae ATCC 700603", "assay_type": "cell-based, Klebsiella pneumoniae", "settings": "ATCC 700603, 18 h", "protocol": "as §1, §3"}, "A. baumannii ATCC 19606 [14]": {"test_system": "A. baumannii ATCC 19606", "assay_type": "cell-based, Acinetobacter baumannii", "settings": "ATCC 19606, 18 h", "protocol": "as §1, §3", "remark": "listed apart in the source"}, "P. aeruginosa ATCC 27853 [15]": {"test_system": "P. aeruginosa ATCC 27853", "assay_type": "cell-based, Pseudomonas aeruginosa", "settings": "ATCC 27853, 18 h", "protocol": "as §1, §3", "remark": "listed apart in the source"}, "A549 cells": {"test_system": "A549 cells", "assay_type": "cell-based, human", "protocol": "The human lung carcinoma epithelial cell line (A549) was obtained from the American Type Culture Collection (ATCC) (Manassas, VA, USA). A549 cells were cultured in adhesion flasks (EuroClone, Milan, Italy) with complete Dulbecco’s MEM (DMEM, EuroClone, Milan, Italy) containing high glucose, supplemented with 100 U/mL penicillin, […] streptomycin (Sigma, Milan, Italy), 2 mM L-glutamine, and 10% FBS (Life Technologies, Carlsbad, CA, USA). Cells were incubated at 37 °C with 5% CO2.\nCytotoxicity in A549 cells was assessed using the MTT assay. After reaching confluence, cells were counted using a Bürker–Türk chamber and diluted to 2 × 10^5 cells/mL in DMEM. A total of 100 μL of this suspension was seeded into 96-well plates (Sarstedt, Milan, Italy) and incubated overnight at 37 °C with 5% CO2. The next day, the spent medium was replaced with 100 μL of fresh DMEM medium containing peptide or water at the desired concentration. After 20 h of incubation, 25 μL of 1 mg/mL MTT (Sigma, Milan, Italy) in PBS was added, and the plates were incubated for 4 h in the dark. […] After overnight incubation, absorbance was measured at 570 nm using a Nanoquant Infinite-M200Pro plate reader (Tecan Trading AG, Switzerland). The cytotoxicity was calculated by comparing the OD of treated samples with that of untreated controls. […]"}},
  "note": "Ends that are not written are not given here.",
  "data": [
    {"sequence": "WRIRRRWPRLPRPRWRPRFPPPFPIPR [Peptide B7-T11]", "values": [
      {"measurement": "MIC", "setting": "E. coli ATCC 25922 [1]", "value": 2, "unit": "µM"},
      {"measurement": "MIC (geometric mean)", "setting": "E. coli ATCC 25922 [1]", "value": "1,3 µM"},
      {"measurement": "MIC", "setting": "E. coli BW 25113 ΔsbmA [2]", "value": 1, "unit": "µM"},
      {"measurement": "MIC", "setting": "E. coli BW 25113 [3]", "value": 1, "unit": "µM"},
      {"measurement": "MIC", "setting": "E. faecium ATCC 19434 [4]", "value": 4, "unit": "µM"},
      {"measurement": "MIC (geometric mean)", "setting": "E. faecium ATCC 19434 [4]", "value": "5,0 µM"},
      {"measurement": "MIC", "setting": "S. aureus ATCC 25923 [5]", "value": 16, "unit": "µM"},
      {"measurement": "MIC (geometric mean)", "setting": "S. aureus ATCC 25923 [5]", "value": "12,7 µM"},
      {"measurement": "MIC", "setting": "A. baumannii ATCC 19606 [6]", "value": 1, "unit": "µM"},
      {"measurement": "MIC (geometric mean)", "setting": "A. baumannii ATCC 19606 [6]", "value": "1,3 µM"},
      {"measurement": "MIC", "setting": "P. aeruginosa ATCC 27853 [7]", "value": 16, "unit": "µM"},
      {"measurement": "MIC (geometric mean)", "setting": "P. aeruginosa ATCC 27853 [7]", "value": "12,7 µM"},
      {"measurement": "MBC", "setting": "E. coli ATCC 25922 [8]", "value": 2, "unit": "µM"},
      {"measurement": "MBC (geometric mean)", "setting": "E. coli ATCC 25922 [8]", "value": "1,3 µM"},
      {"measurement": "MBC", "setting": "E. coli BW 25113 ΔsbmA [9]", "value": 2, "unit": "µM"},
      {"measurement": "MBC", "setting": "E. coli BW 25113 [10]", "value": 1, "unit": "µM"},
      {"measurement": "MBC", "setting": "E. faecium ATCC 19434 [11]", "value": 32, "unit": "µM"},
      {"measurement": "MBC (geometric mean)", "setting": "E. faecium ATCC 19434 [11]", "value": "40,3 µM"},
      {"measurement": "MBC", "setting": "S. aureus ATCC 25923 [12]", "value": 16, "unit": "µM"},
      {"measurement": "MBC (geometric mean)", "setting": "S. aureus ATCC 25923 [12]", "value": "20,2 µM"},
      {"measurement": "MBC", "setting": "[13]", "value": 4, "unit": "µM"},
      {"measurement": "MBC (geometric mean)", "setting": "[13]", "value": "3,2 µM"},
      {"measurement": "MBC", "setting": "A. baumannii ATCC 19606 [14]", "value": 2, "unit": "µM"},
      {"measurement": "MBC (geometric mean)", "setting": "A. baumannii ATCC 19606 [14]", "value": "1,6 µM"},
      {"measurement": "MBC", "setting": "P. aeruginosa ATCC 27853 [15]", "value": 16, "unit": "µM"},
      {"measurement": "MBC (geometric mean)", "setting": "P. aeruginosa ATCC 27853 [15]", "value": "20,2 µM"},
      {"measurement": "Cytotoxicity toward A549 cells (MTT) at 64 µM", "setting": "A549 cells", "value": "cytotoxic"}
    ]}
  ]
}
